Source: US9550078B2, “EDAR ligand derived peptides and use thereof” (CAREGEN CO., LTD., priority 2011, dated 2017)
Where no end group is shown, it is not given here.

What was measured:
Assay type in all cases: cell-based
[1] = system: NIH3T3 fibroblasts; assay: SRB colorimetric assay of cell growth; conditions: 1, 10 and 50 μg/ml, 72 hr, absorbance at 590 nm
Experimental: In order to evaluate three peptides prepared in Preparation Example 1 whether they have similar activities of growth factor, SRB (Sulforhodamine B; Sigma-Aldrich) colorimetric assay was carried out using HaCaT kerationcytes (Korean Cell Line Bank) and NIH3T3 fibroblasts (Korean Cell Line Bank) according to Rizzino et al. method (Rizzino, et al. Cancer Res., 48: 4266 (1988)).
HaCaT ketatinocytes and NIH3T3 fibroblasts were cultured in 250 ml-flasks containing EMEM (Eagle's minimal essential media; Gibco, USA) supplemented with 10% FBS (fetal bovine serum; Sigma). Cells cultured were treated with 1% trypsin solution to detach cells from the bottom of culture flasks and centrifuged to collect cell pellets. After cells were resuspended in EMEM not containing FBS, its aliquot (3×10^3 cells) was added to each well of 96-well plates and cultured under 5% CO2 for 24 hr at 37° C. After 24-hr culture, the medium was changed with a fresh medium without serum and cells were incubated with empty sample (for normalization) and peptides synthesized aseptically dissolved in […] distilled water with the respective concentrations of 1 μg/ml, 10 μg/ml and 50 μg/ml for 72 hr under the same conditions as described above. After removing supernatants, cells were fixed with ethanol and then washed three times using PBS (phosphate buffered saline), followed by incubation with SRB solution. Cells were sufficiently washed with 1% acetic acid and observed under a microscope to find living cell condition. In addition, absorbance at 590 nm was measured to analyze cell viability.

[2] = system: Shh protein; assay: Western blot of Shh protein expression; conditions: keratinocytes, 10 μg/ml, 24 hr
Experimental: To verify whether the peptides synthesized in preparation Example 1 enhances the expression of Shh protein which is known as EDA1 target molecule and to stimulate the hair follicle, kerationcytes (3×10^5 cells) was added to each well of 96-well plates and cultured under 5% CO2 for 24 hr at 37° C. After 24-hr culture, the medium was changed with a fresh medium without serum and cells were treated with empty sample (for normalization) and peptides synthesized aseptically dissolved in distilled water with the concentration of 10 μg/ml and cultured for 24 hr under the same conditions as described above. After that, the cell culture was collected and the expression level of Shh was measured through Western blotting using the specific antibody to Shh protein.

[3] = system: IL-1b, IL-6, and COX-2; assay: RT-PCR of NF-κB-induced genes; conditions: HaCaT keratinocytes
Experimental: (§1) HaCaT kerationcytes were incubated with the peptides synthesized in preparation Example 1 for 20 min. The translocation of NF-κB into nucleus through the phosphorylation of IκB was examined as a representative signaling of EDA protein. The respective effect was measured by Western blot analysis using an antibody against IκB and NF-κB (SantaCruz, USA). The effect of IκB degradation through phosphorylation and uniquitination in a concentration dependent manner of the treated peptides of this invention was confirmed (FIGS. 3a and 3b). Furthermore, the activation and nucleus translocation of NF-κB was also observed after degradation of IκB (FIGS. 4a and 4b). […] The expression levels of the above mentioned proteins of IL-1b, IL-6, and COX-2 were increased with the translocations of NF-κB into nucleus which is induced by the treatments of the peptides.

[4] = system: NF-κB; assay: Western blot of NF-κB translocation into nucleus; conditions: HaCaT keratinocytes, 20 min
Experimental: as §1

[5] = system: IκB; assay: Western blot of IκB degradation (EDA1-EDAR signal); conditions: HaCaT keratinocytes, 20 min
Experimental: as §1

Row | Sequence | growth of fibroblasts [1] | growth of fibroblasts ([1]; listed as SEQ ID NO:1) | expression of Shh protein [2] | expression of COX-2, IL-6, IL-1b [3] | translocation of NF-κB into nucleus [4] | cellular amount of IκB protein (degradation through phosphorylation and ubiquitination) [5] | growth of fibroblasts ([1]; listed as SEQ ID NO:2)
1 | NMSKHTTFFGA | notably increases | stimulatory effect | remarkably enhanced | remarkably enhanced | translocation of NF-κB into nucleus after activation | reduced | –
2 | LLADTTHHRPWT [compound 2] | notably increases | – | remarkably enhanced | remarkably enhanced | translocation of NF-κB into nucleus after activation | reduced | stimulatory effect
